Results as given in patent publication US8124653B2, “Methods and compositions for the treatment of attention deficit hyperactivity disorder and hyperphenylalanemia” (The Board of Regents of The University of Texas System, priority 2004, dated 2012).
Values joined by “and” are separate entries in the source; they are usually repeats but may differ in a detail not shown here. Equal entries are not always repeated.

Legend:
PKU afflicted mice = assay: Levels of metabolites in mouse brain following BH4 and 6-methyl BH4 treatment, PKU mice; assay type: in vivo; conditions: for 3OMD level in brain / 5HT level in brain / DA level in brain / DOPAC level in brain / HIAA level in brain / HVA level in brain / MPHG level in brain: PKU mice, single dose IM 100 mg/kg, after 1 hr, one line per animal
Procedure: (§1) To comparatively investigate the CNS effects of BH4 and methyl BH4, we used mice both with and without PKU. A single dose of either compound was given IM, 100 mg/kg to PKU afflicted and normal mice, with control groups receiving buffer only. After 1 hr, a time sufficient to observe changes in brain chemistry, the mice were sacrificed, and brains were sent out for analysis of 3-O-methyldopa (“3OMD”), 5-hydroxytryptamine ([…]) (serotonin), dihydroxybenzoic acid (“DHBA”), dopamine (“DA”), dihydroxyphenylacetic acid (“DOPAC”), hydroxyindoleacetic acid (“HIAA”), homovanilic acid (“HVA”), and methoxyhydroxyphenylglycol (“MPHG”) levels.

patients with PKU = assay: Oral BH4 loading in patients with PKU, blood Phe and tyrosine by tandem MS/MS (Example 2); assay type: in vivo, human
Procedure: This study included 15 males and 10 females with PKU. There were 13 subjects with “classical” PKU (based on blood Phe levels greater than 20 mg/dL) and 12 with “atypical” PKU (blood Phe 6.0-20 mg/dL). The mean age of the subjects was 16.6 years with a range from 6 months to 43 years. All subjects were on a restricted Phe diet, except four subjects with atypical PKU, who had discontinued diet treatment. […] Tetrahydrobiopterin (BH4) was obtained from Schircks Laboratories, Jena, Switzerland. The subjects were given BH4 10 mg/kg or 20 mg/kg by mouth after baseline blood Phe and tyrosine were drawn. Blood Phe and tyrosine were taken at 4, 8, and 24 hours and determined using tandem MS/MS (Neogen).

PKU patients = assay: Single oral BH4 dose in PKU patients, blood Phe and tyrosine response (Example 1); assay type: in vivo, human; conditions: single oral 10 mg/kg, responder = Phe reduction 25% or greater with tyrosine increase 25% or greater within 24 hours
Procedure: PKU patients were administered a single oral dose of 10 mg/kg BH4, and blood levels of both Phe and tyrosine were monitored at 0, 4, 8, 24 hours post-dose. In this regard, it should be noted that this is half the dose administered by previous investigators.

normal mice = assay: Levels of metabolites in mouse brain following BH4 and 6-methyl BH4 treatment, normal mice; assay type: in vivo; conditions: Non PKU mice, single dose IM 100 mg/kg, after 1 hr; one line per animal
Procedure: as §1

[1] = tested on: release of neurotransmitter amines; conditions: U.S. Pat. No. 5,606,020 to Watanabe et al.; cited from earlier work

| SMILES | 3OMD level in brain (PKU afflicted mice) | 5HT level in brain (PKU afflicted mice) | DA level in brain (PKU afflicted mice) | DOPAC level in brain (PKU afflicted mice) | HIAA level in brain (PKU afflicted mice) | HVA level in brain (PKU afflicted mice) | MPHG level in brain (PKU afflicted mice) | 3OMD level in brain (normal mice) | 5HT level in brain (normal mice) | DA level in brain (normal mice) | DOPAC level in brain (normal mice) | HIAA level in brain (normal mice) | HVA level in brain (normal mice) | MPHG level in brain (normal mice) | further results |
| --- | --- | --- | --- | --- | --- | --- | --- | --- | --- | --- | --- | --- | --- | --- | --- |
| C[C@H](O)[C@H](O)[C@H]1CNc2nc(N)[nH]c(=O)c2N1 [BH4, Tetrahydrobiopterin] | 0.48 nmol/g wet weight and 0.16 nmol/g wet weight and 0.09 nmol/g wet weight and 0.55 nmol/g wet weight and 95.1 nmol/l and 32.9 nmol/l and 18.2 nmol/l and 110.4 nmol/l | 0.16 nmol/g wet weight and 0.23 nmol/g wet weight and 0.15 nmol/g wet weight and 0.24 nmol/g wet weight and 31.5 nmol/l and 45.7 nmol/l and 30.4 nmol/l and 48.3 nmol/l | 6.28 nmol/g wet weight and 9.48 nmol/g wet weight and 6.91 nmol/g wet weight and 8.08 nmol/g wet weight and 1256.0 nmol/l and 1896.3 nmol/l and 1382.2 nmol/l and 1616.2 nmol/l | 0.40 nmol/g wet weight and 0.53 nmol/g wet weight and 0.51 nmol/g wet weight and 0.37 nmol/g wet weight and 80.9 nmol/l and 105.7 nmol/l and 101.0 nmol/l and 73.1 nmol/l | 0.91 nmol/g wet weight and 1.68 nmol/g wet weight and 0.94 nmol/g wet weight and 1.45 nmol/g wet weight and 181.1 nmol/l and 336.9 nmol/l and 188.0 nmol/l and 290.6 nmol/l | 0.80 nmol/g wet weight and 1.04 nmol/g wet weight and 0.77 nmol/g wet weight and 0.94 nmol/g wet weight and 160.6 nmol/l and 207.0 nmol/l and 153.6 nmol/l and 188.7 nmol/l | 0.18 nmol/g wet weight and 0.21 nmol/g wet weight and 0.26 nmol/g wet weight and 0.16 nmol/g wet weight and 35.2 nmol/l and 42.9 nmol/l and 51.6 nmol/l and 31.6 nmol/l | 0.58 nmol/g wet weight and 0.27 nmol/g wet weight and 0.60 nmol/g wet weight and 0.41 nmol/g wet weight and 115.6 nmol/l and 53.3 nmol/l and 119.7 nmol/l and 81.1 nmol/l | 1.27 nmol/g wet weight and 1.21 nmol/g wet weight and 1.16 nmol/g wet weight and 1.53 nmol/g wet weight and 253.5 nmol/l and 242.3 nmol/l and 231.2 nmol/l and 305.2 nmol/l | 9.06 nmol/g wet weight and 9.56 nmol/g wet weight and 9.63 nmol/g wet weight and 9.93 nmol/g wet weight and 1811.4 nmol/l and 1912.5 nmol/l and 1926.7 nmol/l and 1985.9 nmol/l | 0.68 nmol/g wet weight and 0.62 nmol/g wet weight and 0.72 nmol/g wet weight and 0.79 nmol/g wet weight and 136.6 nmol/l and 124.4 nmol/l and 143.4 nmol/l and 158.6 nmol/l | 3.49 nmol/g wet weight and 3.23 nmol/g wet weight and 3.19 nmol/g wet weight and 3.58 nmol/g wet weight and 697.5 nmol/l and 646.1 nmol/l and 638.7 nmol/l and 716.9 nmol/l | 1.08 nmol/g wet weight and 1.09 nmol/g wet weight and 1.22 nmol/g wet weight and 1.18 nmol/g wet weight and 216.9 nmol/l and 217.7 nmol/l and 243.0 nmol/l and 236.6 nmol/l | 0.36 nmol/g wet weight and 0.30 nmol/g wet weight and 0.40 nmol/g wet weight and 0.33 nmol/g wet weight and 72.5 nmol/l and 60.6 nmol/l and 80.2 nmol/l and 66.7 nmol/l | Number of classical PKU subjects who responded to BH4 (patients with PKU; 13 subjects with classical PKU (blood Phe greater than 20 mg/dL)): 6; Drop in blood Phe level (patients with PKU; non-responding patients with R261Q allele challenged again with 20 mg/kg BH4): 10%; Mean decline in blood Phe (patients with PKU; responders, after BH4 loading): 53.7%; Mean blood Phe level after BH4 loading (patients with PKU; responders, prior to BH4 12.2 mg/dL): 6.6 mg/dL; Mean blood Phe level after BH4 loading (patients with PKU; responders, prior to BH4 732 mmol/L, unit of the source corrected): 396 µM; Number of Responders (PKU patients; Atypical PKU, blood Phe 6-20 mg/dl, 9 subjects): 9; Number of Responders (PKU patients; Classic PKU, blood Phe 20-50 mg/dl, 6 subjects): 0 |
| CC1CNc2nc(N)[nH]c(=O)c2N1 (centres unmarked) [6-Me BH4, 6-methyl-tetrahydropterin] | 0.39 nmol/g wet weight and 0.26 nmol/g wet weight and 0.17 nmol/g wet weight and 0.47 nmol/g wet weight and 77.7 nmol/l and 51.9 nmol/l and 34.9 nmol/l and 94.1 nmol/l | 0.20 nmol/g wet weight and 0.15 nmol/g wet weight and 0.28 nmol/g wet weight and 0.24 nmol/g wet weight and 40.0 nmol/l and 30.0 nmol/l and 56.7 nmol/l and 47.6 nmol/l | 10.16 nmol/g wet weight and 7.14 nmol/g wet weight and 6.46 nmol/g wet weight and 7.27 nmol/g wet weight and 2031.2 nmol/l and 1427.4 nmol/l and 1292.6 nmol/l and 1454.4 nmol/l | 0.51 nmol/g wet weight and 0.40 nmol/g wet weight and 0.52 nmol/g wet weight and 0.48 nmol/g wet weight and 101.7 nmol/l and 80.6 nmol/l and 104.5 nmol/l and 95.6 nmol/l | 1.70 nmol/g wet weight and 1.03 nmol/g wet weight and 1.64 nmol/g wet weight and 1.41 nmol/g wet weight and 340.4 nmol/l and 205.6 nmol/l and 328.1 nmol/l and 282.2 nmol/l | 1.18 nmol/g wet weight and 0.94 nmol/g wet weight and 0.92 nmol/g wet weight and 0.91 nmol/g wet weight and 236.9 nmol/l and 187.2 nmol/l and 184.5 nmol/l and 182.1 nmol/l | 0.36 nmol/g wet weight and 0.26 nmol/g wet weight and 0.32 nmol/g wet weight and 0.18 nmol/g wet weight and 71.2 nmol/l and 52.1 nmol/l and 63.2 nmol/l and 36.3 nmol/l | 0.57 nmol/g wet weight and 0.29 nmol/g wet weight and 0.36 nmol/g wet weight and 0.44 nmol/g wet weight and 114.5 nmol/l and 87.7 nmol/l and 58.2 nmol/l and 71.7 nmol/l | 1.07 nmol/g wet weight and 1.31 nmol/g wet weight and 1.21 nmol/g wet weight and 1.11 nmol/g wet weight and 214.3 nmol/l and 222.6 nmol/l and 261.1 nmol/l and 242.3 nmol/l | 10.86 nmol/g wet weight and 10.26 nmol/g wet weight and 11.50 nmol/g wet weight and 10.56 nmol/g wet weight and 2172.4 nmol/l and 2112.1 nmol/l and 2051.2 nmol/l and 2300.5 nmol/l | 0.61 nmol/g wet weight and 0.65 nmol/g wet weight and 0.66 nmol/g wet weight and 0.59 nmol/g wet weight and 121.6 nmol/l and 118.9 nmol/l and 129.6 nmol/l and 132.5 nmol/l | 3.09 nmol/g wet weight and 3.56 nmol/g wet weight and 3.65 nmol/g wet weight and 3.22 nmol/g wet weight and 617.3 nmol/l and 643.9 nmol/l and 712.0 nmol/l and 730.5 nmol/l | 1.26 nmol/g wet weight and 0.99 nmol/g wet weight and 1.20 nmol/g wet weight and 1.28 nmol/g wet weight and 252.9 nmol/l and 256.9 nmol/l and 197.1 nmol/l and 240.6 nmol/l | 0.31 nmol/g wet weight and 0.26 nmol/g wet weight and 0.30 nmol/g wet weight and 0.29 nmol/g wet weight and 62.9 nmol/l and 58.9 nmol/l and 51.2 nmol/l and 59.7 nmol/l | Overall effect on CNS chemistry, compared with BH4 (PKU afflicted mice; PKU and normal mice, IM 100 mg/kg, 1 hr, summary of Tables 5 and 6): greater effect on CNS chemistry; Ability to traverse the blood brain barrier, as compared to BH4 (PKU afflicted mice; inferred from brain metabolite levels, PKU and normal mice): better ability to traverse the blood brain barrier |
| C[C@H](O)[C@H](O)[C@H]1CNc2nc(N)[nH]c(=O)c2N1 [6R-BH4] | – | – | – | – | – | – | – | – | – | – | – | – | – | – | Release and liberation of neurotransmitter amines such as dopamine, norepinephrine and serotonin [1]: enhances the release and liberation of neurotransmitter amines |
